According to PMC10323144, “Garbage in, garbage out: how reliable training data improved a virtual screening approach against SARS-CoV-2 MPro” (Frontiers in Pharmacology, 2023):
Square brackets hold non-standard residues; d marks the D form. Peptide text beside a SMILES is read from it. * marks the point of attachment. Bn = c1ccc(C*)cc1; Sar = CNCC(=O)O

Tests used:
SARS-CoV-2 MPro = SARS-CoV-2 MPro (Severe acute respiratory syndrome coronavirus 2, UniProt P0DTD1); test: MPro activity assay (de-quenching of Edans fluorescence on cleavage of a Dabcyl/Edans peptide); assay type: biochemical; settings: for activity at 25 µM: read-out: MPro activity (%); for Class (MPro activity class): in-house acquired data, internal screening under standardized conditions (128 compounds)
MPro = settings: compiled from peer-reviewed sources (287 compounds) ref the 18 original articles; cited from earlier work

SMILES | Class (MPro activity class) (SARS-CoV-2 MPro) | Class (MPro activity class) (MPro) | other results
O=S(=O)(/C=C\c1ccc2no[n+]([O-])c2c1)c1ccccc1 [18d] |  |  | activity at 25 µM (SARS-CoV-2 MPro): 71.2 ± 0.9%
O=C(OC[C@H]1O[C@@H](OC(=O)c2ccccc2)[C@H](OC(=O)c2ccccc2)[C@@H](OC(=O)c2ccccc2)[C@@H]1OC(=O)c1ccccc1)c1ccccc1 [8a] |  |  | activity at 25 µM (SARS-CoV-2 MPro): 67 ± 2.5%
O=C(Nc1nc2cc(Sc3ccccc3)ccc2[nH]1)c1ccccc1I [COV19029] | 0 (compounds with IC50 > 20 μM, percentage inhibition <80% at 20 µM or 50 μM, or percentage enzyme inhibition <50% at 10 µM were labelled as INACTIVE) |  | 
O=S(=O)(/C=C\c1ccc2no[n+]([O-])c2c1)c1ccc(Cl)cc1 [13d] |  |  | activity at 25 µM (SARS-CoV-2 MPro): 58 ± 0.3%
Nc1ncc(C(=O)N(Cc2ccccc2)Cc2ccccc2)o1 [ZVR-102] | 0 (compounds with IC50 > 20 μM, percentage inhibition <80% at 20 µM or 50 μM, or percentage enzyme inhibition <50% at 10 µM were labelled as INACTIVE) |  | 
O=c1c2ccccc2sn1-c1ccc2ccccc2c1 [COV19013] | 1 (Compounds with IC50 < 10 µM or with a percentage of enzyme inhibition >50% at 10 µM were labelled as ACTIVE) |  | 
CN1CC(=O)NC(Cc2ccccc2)C(=O)N(C)CC(=O)NC(CSCc2ccccc2)C1=O (centres unmarked) [vCOV194219] (cyclo([Sar]C(Bn)[Sar]F); configuration not given here) | 0 (compounds with IC50 > 20 μM, percentage inhibition <80% at 20 µM or 50 μM, or percentage enzyme inhibition <50% at 10 µM were labelled as INACTIVE) |  | 
Nc1nc2c(s1)CC(NC(=O)c1cc3cc(F)ccc3[nH]1)CC2 (centres unmarked) [Cpd 48] | 0 (compounds with IC50 > 20 μM, percentage inhibition <80% at 20 µM or 50 μM, or percentage enzyme inhibition <50% at 10 µM were labelled as INACTIVE) |  | 
O=S(=O)(O)c1ccc(/C=N/N=c2\scc(-c3cs/c(=N\N=C\c4ccc(S(=O)(=O)O)o4)n3-c3ccccc3)n2-c2ccccc2)o1 [5a] |  |  | activity at 25 µM (SARS-CoV-2 MPro): 65.6 ± 10.9%
O=C(Nc1ccc([N+](=O)[O-])cc1)c1ccccc1I [COV19030] | 0 (compounds with IC50 > 20 μM, percentage inhibition <80% at 20 µM or 50 μM, or percentage enzyme inhibition <50% at 10 µM were labelled as INACTIVE) |  | 
O=C(O)c1ccc2no[n+]([O-])c2c1 [7d] |  |  | activity at 25 µM (SARS-CoV-2 MPro): 66 ± 4%
Cc1c(C(=O)NCc2ccccc2)[n+]([O-])c2ccccc2[n+]1[O-] [4a] |  |  | activity at 25 µM (SARS-CoV-2 MPro): 59.4 ± 3.6%
O=C(Nc1ccc(Cl)cc1)c1ccccc1I [COV19027] | 0 (compounds with IC50 > 20 μM, percentage inhibition <80% at 20 µM or 50 μM, or percentage enzyme inhibition <50% at 10 µM were labelled as INACTIVE) |  | 
Cc1ccc([S+]([O-])/C=C/c2ccc3no[n+]([O-])c3c2)cc1 (centres unmarked) [11d] |  |  | activity at 25 µM (SARS-CoV-2 MPro): 70.6 ± 0.8%
Cc1cccc2c(=O)n(-c3ccccc3)sc12 [COV19017] | 0 (compounds with IC50 > 20 μM, percentage inhibition <80% at 20 µM or 50 μM, or percentage enzyme inhibition <50% at 10 µM were labelled as INACTIVE) |  | 
C(=Cc1ccco1)C=Nn1cnnc1 [COV19287] | 0 (compounds with IC50 > 20 μM, percentage inhibition <80% at 20 µM or 50 μM, or percentage enzyme inhibition <50% at 10 µM were labelled as INACTIVE) |  | 
COc1cccc(-n2c(NCCN3CCNCC3)nc3sc4c(c3c2=O)CCCC4)c1 [Cpd 52] | 0 (compounds with IC50 > 20 μM, percentage inhibition <80% at 20 µM or 50 μM, or percentage enzyme inhibition <50% at 10 µM were labelled as INACTIVE) |  | 
O=C(Nc1ccc(C(F)(F)F)cc1)c1ccccc1I [COV19037] | 0 (compounds with IC50 > 20 μM, percentage inhibition <80% at 20 µM or 50 μM, or percentage enzyme inhibition <50% at 10 µM were labelled as INACTIVE) |  | 

SMILES | Class (MPro activity class) (SARS-CoV-2 MPro) | Class (MPro activity class) (MPro) | other results
CCNC(=S)NN=C(C)c1cc2ccccc2oc1=O [COV19138] | 0 (compounds with IC50 > 20 μM, percentage inhibition <80% at 20 µM or 50 μM, or percentage enzyme inhibition <50% at 10 µM were labelled as INACTIVE) |  | 
[O-][n+]1onc2ccc(/C=C\[S+]([O-])c3ccccc3)cc21 (centres unmarked) [12d] |  |  | activity at 25 µM (SARS-CoV-2 MPro): 56.2 ± 0.5%
O=c1cc(-c2ccccc2)oc2cc(O)cc(O)c12 [Chrysin] |  | 0 (compounds with IC50 > 20 μM, percentage inhibition <80% at 20 µM or 50 μM, or percentage enzyme inhibition <50% at 10 µM were labelled as INACTIVE) | 
CC(O)c1cc(C(=O)N[C@@H](C)Cn2ccc(-c3ccc(C#N)c(Cl)c3)n2)[nH]n1 (some centres unmarked) [DAROLUTAMIDE] |  | 0 (compounds with IC50 > 20 μM, percentage inhibition <80% at 20 µM or 50 μM, or percentage enzyme inhibition <50% at 10 µM were labelled as INACTIVE) | 
CC(C)CCNC(=O)C(CC(C)C)NC(=O)C1OC1C(=O)O (centres unmarked) [Loxistatin Acid] |  | 0 (compounds with IC50 > 20 μM, percentage inhibition <80% at 20 µM or 50 μM, or percentage enzyme inhibition <50% at 10 µM were labelled as INACTIVE) | 
CC(NC(=O)Cc1cc(F)cc(F)c1)C(=O)NC(C(=O)OC(C)(C)C)c1ccccc1 (centres unmarked) [DAPT (GSI-IX)] |  | 0 (compounds with IC50 > 20 μM, percentage inhibition <80% at 20 µM or 50 μM, or percentage enzyme inhibition <50% at 10 µM were labelled as INACTIVE) | 
CC(NC(=O)CCl)c1cc(Cl)cc(-c2ccc(S(N)(=O)=O)cc2)c1 (centres unmarked) [DAV-CRI-14a23e73-1] |  | 1 (Compounds with IC50 < 10 µM or with a percentage of enzyme inhibition >50% at 10 µM were labelled as ACTIVE) | 
C=CC(=O)N(c1ccc(C(C)(C)C)cc1)C(C(=O)NCCc1cccc(F)c1)c1cncc(C#N)c1 (centres unmarked) [LON-WEI-babf2c61-3] |  | 1 (Compounds with IC50 < 10 µM or with a percentage of enzyme inhibition >50% at 10 µM were labelled as ACTIVE) | 
Nc1nc(N)c2nc(-c3cccc(O)c3)c(-c3cccc(O)c3)nc2n1 [TG100-115] |  | 0 (compounds with IC50 > 20 μM, percentage inhibition <80% at 20 µM or 50 μM, or percentage enzyme inhibition <50% at 10 µM were labelled as INACTIVE) | 
O=c1[nH]cc(-c2cc(-c3cc(Cl)cc(OCc4ccccc4)c3)c(=O)n(-c3cccnc3)c2)c(=O)[nH]1 [compound 14] |  | 1 (Compounds with IC50 < 10 µM or with a percentage of enzyme inhibition >50% at 10 µM were labelled as ACTIVE) | 
CCC(C)SSc1ncc[nH]1 (centres unmarked) [PX-12] |  | 0 (compounds with IC50 > 20 μM, percentage inhibition <80% at 20 µM or 50 μM, or percentage enzyme inhibition <50% at 10 µM were labelled as INACTIVE) | 
CCC(CC)C(NC(C)=O)C1C(N=C(N)N)CC(C(=O)O)C1O (centres unmarked) [Peramivir] |  | 0 (compounds with IC50 > 20 μM, percentage inhibition <80% at 20 µM or 50 μM, or percentage enzyme inhibition <50% at 10 µM were labelled as INACTIVE) | 
O=C1c2ccccc2NC(c2cc(Cl)ccc2O)N1N=Cc1cc(Cl)ccc1O (centres unmarked) [QZ2] |  | 1 (Compounds with IC50 < 10 µM or with a percentage of enzyme inhibition >50% at 10 µM were labelled as ACTIVE) | 
Cn1nc(C(C)(C)C)cc1C(=O)NC(Cc1cccc(Cl)c1)C(=O)NCC#N (centres unmarked) [Cathepsin inhibitor 1] |  | 0 (compounds with IC50 > 20 μM, percentage inhibition <80% at 20 µM or 50 μM, or percentage enzyme inhibition <50% at 10 µM were labelled as INACTIVE) | 
O=C(Cc1cccc(Cl)c1)Nc1cccnc1 [EDG-MED0da5ad92-2] |  | 0 (compounds with IC50 > 20 μM, percentage inhibition <80% at 20 µM or 50 μM, or percentage enzyme inhibition <50% at 10 µM were labelled as INACTIVE) | 
N#Cc1ccccc1-c1cc(-c2cc(Cl)cc(OCCc3ccccc3)c2)c(=O)n(-c2cccnc2)c1 [compound 8] |  | 1 (Compounds with IC50 < 10 µM or with a percentage of enzyme inhibition >50% at 10 µM were labelled as ACTIVE) | 
NC(=O)c1ncn([C@@H]2O[C@H](CO)[C@@H](O)[C@H]2O)n1 [Ribavirin] |  | 0 (compounds with IC50 > 20 μM, percentage inhibition <80% at 20 µM or 50 μM, or percentage enzyme inhibition <50% at 10 µM were labelled as INACTIVE) | 
